Measured values: article PMC11087525 (Scientific Reports, 2024)
In brackets after ≈: the same amount, converted by molar mass. Several values for one entry are separate records, joined by “and”; a condition that tells them apart may be missing. Equal values may be shown once. Read-outs that look alike come from different tables or passages of the source.

Columns and labels:
[1] = rats
[2] = test system: SARS-CoV-2 USA_WAI/2020 isolate
Description: Therefore, the goal for the CSF was set to achieve the same exposure conditions as for plasma.

[3] = test system: SARS-CoV-2 USA_WAI/2020 isolate; settings: cited from earlier work; for plasma EC90Adjusted concentration: adjusted for plasma protein binding
[4] = cited from earlier work
[5] = cited from earlier work; remark: listed apart in the source
[6] = cited from earlier work; remark: listed apart in the source
[7] = cited from earlier work; remark: listed apart in the source
[8] = parameters: method as in earlier work; settings: cited from earlier work
in vivo [9] = settings: male, Sprague-Dawley, rat; for Tmax: Average Tmax
in vivo [10] = settings: male, Sprague-Dawley, rat, Median (IQR), rats
human neurons [11] = test: In-vitro drug uptake by human neurons; settings: for uptake of NMR by neurons (mean ± SD): 24-h incubation
pericytes [12] = test: In-vitro drug uptake by human brain pericytes
[13] = test system: Human brain primary astrocytes; test: In-vitro drug uptake by human brain primary astrocytes
human neurons [14] = test system: human neurons
pericytes [15] = settings: human, 24 h, 1000 ng/mL
[16] = rats, oral 30 mg/kg NMR + 10 mg/kg RTV twice daily, 5 days
[17] = rats, oral NMR/RTV twice daily, 5 days
[18] = in the presence or absence of RTV
[19] = RTV alone, 1000 ng/mL, 24-h incubation

CC(C)(C)[C@H](NC(=O)C(F)(F)F)C(=O)N1C[C@H]2[C@@H]([C@H]1C(=O)N[C@H](C#N)C[C@@H]1CCNC1=O)C2(C)C [NMR, nirmatrelvir]
Cmax_0-5 days Plasma, Median (IQR) (all rats): 2240 (1860–4030) ng/mL
%CSF Concentrations ≥ 3xEC90Un_adjusted, Median (IQR) (all rats with CSF, 3xEC90 271.5 ng/mL unadjusted for protein binding): 16 (0 -20.5) % and 16%
Cmax_0-5 days Plasma, Geometric mean (Geometric SD factor) (excluding rat 7, calculated to compare to clinical data): 2480 ng/mL
CSF Cmax, median (rats): 410 ng/mL
% Penetration by Cmax CSF/Plasma, Median (IQR) (rats with CSF sampled): 18.11%
Cmax_0-5 days CSF, Median (IQR) (rats with CSF sampled): 410 (200–880) ng/mL
CL (NMR clearance), median from final model [16]: 0.23 L/h
Ka, median from final model [16]: 0.51 h⁻¹
K23 (rate constant to CSF from central compartment), median [17]: 0.05 h⁻¹
Vc (volume central compartment), median [17]: 1.05 L
Vcsf (volume cerebrospinal fluid compartment), median [17]: 3.46 L
Brain NMR concentration, Median (IQR) [1]: 23.83 (10.94-46.85) ng/g
Heart NMR concentration, Median (IQR) [1]: 61.72 (24.44-111.5) ng/g
Kidney NMR concentration, Median (IQR) [1]: 97.84 (43.28-297.3) ng/g
Liver NMR concentration, Median (IQR) [1]: 110 (35.65-419.5) ng/g
Lung NMR concentration, Median (IQR) [1]: 67.86 (25.01-111.3) ng/g
PBMC NMR concentration, Median (IQR) [1]: 61.44 (31.7-345.2) ng/mL
brain NMR concentrations compared to 3xEC90 ([1]; adjusted or unadjusted for protein binding): all < 3xEC90 regardless of adjustment for protein binding
3xEC90 PD value for CSF [2]: 271.5 ng/mL
3xEC90 PD value for plasma and tissue [2]: 876 ng/mL
3xEC90 plasma protein adjusted in plasma [2]: 0.876 mg/L
3xEC90 unadjusted in CSF [2]: 0.2715 mg/L
plasma EC90Adjusted concentration ([3]; bronchial epithelial cells infected with USA_WAI/2020 isolate): 0.292 µg/mL
plasma EC90Adjusted concentration [3]: 585 nM
EC90Un_adjusted ([3]; unadjusted for protein binding): 0.0905 µg/mL (≈ 0.181 µM)
EC90Un_adjusted for CSF ([3]; unadjusted for protein binding): 0.0905 µg/mL
lipophilicity coefficient (LogP) [4]: 1.68
passive apparent permeability (Papp) [5]: 1.76 ×10⁻⁶ cm/s
participants with NMR trough concentrations ≥ 3 × EC90 ([6]; EPIC-HR, FDA review): 95%
NMR Ka reported by others [6]: 0.55 h⁻¹
half-life for NMR in the presence of RTV in humans [6]: 6.05 h
healthy human geometric mean AUC0-12 h ([6]; healthy volunteers): 23010 ng·h/mL
healthy human geometric mean Cmax ([6]; healthy volunteers): 2210 ng/mL
NMR half-life in other oral rat PK studies ([7]; 10 mg/kg oral, rat): 4 h
F literature values estimated in rats for NMR [7]: 34–50%
Tmax in other rodent models, mean [7]: 1.5 h
protein bound [8]: 69%
Cmax (in vivo [9]): 2480 ng/mL
Kp (in vivo [9]; % Penetration by AUC CSF/Plasma, Median (IQR), rats with CSF sampled): 0.152
Kp (in vivo [9]; % Penetration by Cmax CSF/Plasma, Median (IQR), rats with CSF sampled): 0.181
k el (in vivo [9]; po, 30 mg/kg): 6.67e-05 s⁻¹
AUC (in vivo [9]; po, 30 mg/kg, AUC0-endoftreatment CSF, Median (IQR), rats with CSF sampled): 17600 ng·h/mL
AUC (in vivo [9]; po, 30 mg/kg, AUC0-endoftreatment Plasma, Median (IQR), all rats): 114000 ng·h/mL
AUC (in vivo [9]; po, 30 mg/kg, AUC0-endoftreatment Plasma, Median (IQR), excluding rat 7): 128000 ng·h/mL
AUC (in vivo [9]; po, 30 mg/kg, AUCdaily_average CSF, Median (IQR), rats with CSF sampled): 3520 ng·h/mL
AUC (in vivo [9]; po, 30 mg/kg, AUCdaily_average Plasma, Geometric mean (Geometric SD factor), excluding rat 7, calculated to compare to clinical data): 20200 ng·h/mL
AUC (in vivo [9]; po, 30 mg/kg, AUCdaily_average Plasma, Median (IQR), all rats): 22800 ng·h/mL
AUC (in vivo [9]; po, 30 mg/kg, AUCdaily_average Plasma, Median (IQR), excluding rat 7): 25600 ng·h/mL
Tmax (in vivo [9]; po, 30 mg/kg, Mean (SD), all rats, calculated to compare to literature values): 1.84 h
Tmax (in vivo [9]; po, 30 mg/kg, Median (IQR), all rats): 1.68 h
half-life (in vivo [9]; po, 30 mg/kg, Half-life, Median (IQR), all rats, NMR in the presence of RTV): 2.55 h
Kp (in vivo [9]; po, NMR CSF concentrations as % of those in plasma, ratio of Cmax or AUC, oral NMR/RTV twice daily for five days): 0.15 to 0.18
Kp (in vivo [10]; AR Brain): 0.15
Kp (in vivo [10]; AR Kidney): 1.71
Kp (in vivo [10]; AR Liver): 2.71
Kp (in vivo [10]; AR Lung): 0.89
Kp (in vivo [10]; AR PBMC): 0.998
uptake of NMR by neurons (mean ± SD) (human neurons [11]; NMR alone, 2200 ng/mL): 34.7 ng/mL
uptake of NMR by neurons (mean ± SD) (human neurons [11]; in the presence of RTV (1000 ng/mL), NMR 2200 ng/mL): 122.8 ± 7.8 ng/mL
maximum NMR uptake (uptake/administered) (human neurons [11]; neurons in the presence of RTV, 2200 ng/mL administered): 5.5%
uptake of NMR by pericytes (pericytes [12]; [18]): < 2%
difference in NMR uptake, NMR alone or with RTV (pericytes [12]; pericytes): No significant differences
difference in NMR uptake, NMR alone or with RTV ([13]; astrocytes): No significant differences
uptake of NMR by astrocytes [13, 18]: < 2%

CC(C)c1nc(CN(C)C(=O)N[C@H](C(=O)N[C@@H](Cc2ccccc2)C[C@H](O)[C@H](Cc2ccccc2)NC(=O)OCc2cncs2)C(C)C)cs1 [RTV, ritonavir]
neuronal entry of RTV (human neurons [14]): moderate
uptake of RTV by pericytes (uptake/administered) (pericytes [15]): 20.2%
RTV uptake in pericytes (mean ± SD) (pericytes [12]; [19]): 202.6 ng/mL
RTV uptake in astrocytes (mean ± SD) [13, 19]: 419.7 ng/mL
